Source: patent US8609836B2, “4-aryl-2-anilino-pyrimidines” (Janssen Pharmaceutica NV, priority 2008, dated 2013)

Columns and labels:
[1] = molecular target: PLK4 (h) (Homo sapiens, UniProt O00444); experiment: PLK-4 human kinase inhibition, scintillation proximity assay (SPA); type: biochemical; conditions: read-out: PLK4 pIC50 (converted)
Method: (§1) In the SPA technology the activity of the kinase of interest is measured using an appropriate biotinylated substrate that is incubated with the aforementioned kinase protein in the presence of (^33P) radiolabeled ATP. (^33P) Phosphorylation of the substrate is subsequently measured through binding of the phosphorylated substrate to streptavidine coated beads that are based on the scintillant poly(vinyl toluene) (PVT-Beads). The scintillation intensity is detected by imaging on Leadseeker.
(§2) All kinases are pre-diluted to a 10× working concentration prior to addition into the assay. The composition of the dilution buffer for each kinase is detailed below.
(6.0 μCi/ml). After incubation of 60 minutes at room temperature, the reaction is stopped by addition of 40 μL of stop solution containing 8.7 mM EDTA, BSA 0.17%, 0.17% Triton X-100, 1.7 mg/ml SPA beads (GE-healthcare). The plate is centrifuged and read for Scintillation imaging on Leadseeker.

[2] = molecular target: AuroraB (h) (Homo sapiens, UniProt Q96GD4); experiment: Aurora-B human kinase inhibition, SPA; type: biochemical; conditions: read-out: AuroraB pIC50 (converted)
Sequence of AuroraB (h) (Q96GD4 whole entry): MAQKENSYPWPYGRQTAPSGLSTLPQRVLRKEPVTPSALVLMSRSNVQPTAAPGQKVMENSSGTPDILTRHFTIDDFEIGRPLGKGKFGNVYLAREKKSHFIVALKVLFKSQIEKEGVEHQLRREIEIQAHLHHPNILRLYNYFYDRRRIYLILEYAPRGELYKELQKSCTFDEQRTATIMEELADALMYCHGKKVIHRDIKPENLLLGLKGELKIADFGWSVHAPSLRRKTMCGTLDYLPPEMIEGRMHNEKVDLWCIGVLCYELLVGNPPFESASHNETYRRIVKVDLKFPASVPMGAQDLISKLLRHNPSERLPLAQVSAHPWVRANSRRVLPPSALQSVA
Method: (§3) The in vitro inhibition of a panel of kinases was assessed using either the scintillation proximity assay (SPA) as described by Cook, N. D. et al., Advances in Experimental Medicine and Biology (1991), 36; p. 525-528.
as §1, §2
In a final reaction volume of 30 μl, AuroraB (h) (0.5 μg/ml) is incubated with 60 mM Hepes pH 7.5, 3 mM MgCl2, 3 mM MnCl2, 3 μM Na3VO4, 0.05 mg/ml PEG, 2 mM DTT, 3 μM Biotin-[…]-OH, 0.5 μM ATP and 2.2 nM [γ-^33P-ATP] (6.8 μCi/ml). After incubation of 60 minutes at room temperature, the reaction is stopped by addition of 40 μL of stop solution containing 8.7 mM EDTA, BSA 0.17%, 0.17% Triton X-100, 5 mg/ml SPA beads (GE-healthcare). The plate is centrifuged and read for Scintillation imaging on Leadseeker.

[3] = molecular target: GSK3β (h) (Homo sapiens, UniProt P49841); experiment: GSK-3β human kinase inhibition, SPA; type: biochemical; conditions: read-out: GSK3b pIC50 (converted)
Sequence of GSK3β (h) (P49841 whole entry): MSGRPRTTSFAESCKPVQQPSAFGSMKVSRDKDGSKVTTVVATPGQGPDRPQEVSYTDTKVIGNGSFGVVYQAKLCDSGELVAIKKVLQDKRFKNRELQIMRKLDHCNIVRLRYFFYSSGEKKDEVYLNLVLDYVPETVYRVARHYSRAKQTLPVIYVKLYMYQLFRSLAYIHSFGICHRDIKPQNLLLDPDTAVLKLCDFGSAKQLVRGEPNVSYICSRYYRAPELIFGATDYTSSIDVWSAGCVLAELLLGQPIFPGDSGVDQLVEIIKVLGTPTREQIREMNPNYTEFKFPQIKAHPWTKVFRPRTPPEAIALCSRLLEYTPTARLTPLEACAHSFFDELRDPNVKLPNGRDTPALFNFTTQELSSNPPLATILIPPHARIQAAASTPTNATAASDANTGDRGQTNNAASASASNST
Method: as §3, §1, §2
In a final reaction volume of 30 μl, GSK3β (h) (1 μg/ml) is incubated with 25 mM Tris pH 7.4, 10 mM MgCl2, 1 mM DTT, 1 μM peptide Biotin-[…]-OH, 1 μM ATP and 2 nM [γ-^33P-ATP] (6.0 μCi/ml). After incubation of 60 minutes at room temperature, the reaction is stopped by addition of 40 μL of stop solution containing 8.7 mM EDTA, BSA 0.17%, 0.17% Triton X-100, 6.25 mg/ml SPA beads (GE-healthcare). The plate is centrifuged and read for Scintillation imaging on Leadseeker.

[4] = molecular target: CDK1/CyclinB (h) (Homo sapiens, UniProt P06493); experiment: CDK1/CyclinB human kinase inhibition, Invitrogen's FRET assay (Z'lyte); type: biochemical; conditions: read-out: CDK1 pIC50 (converted)
Sequence of CDK1/CyclinB (h) (P06493 whole entry): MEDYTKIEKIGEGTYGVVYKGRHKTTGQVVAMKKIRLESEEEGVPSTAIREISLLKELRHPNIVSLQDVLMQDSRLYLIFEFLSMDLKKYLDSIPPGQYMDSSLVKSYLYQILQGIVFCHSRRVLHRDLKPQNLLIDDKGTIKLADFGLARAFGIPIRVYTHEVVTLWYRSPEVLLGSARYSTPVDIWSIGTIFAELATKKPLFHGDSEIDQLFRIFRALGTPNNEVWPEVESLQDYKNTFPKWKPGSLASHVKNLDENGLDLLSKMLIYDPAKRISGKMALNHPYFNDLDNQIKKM
Sequence of CDK1/CyclinB (h) (P14635 whole entry partner): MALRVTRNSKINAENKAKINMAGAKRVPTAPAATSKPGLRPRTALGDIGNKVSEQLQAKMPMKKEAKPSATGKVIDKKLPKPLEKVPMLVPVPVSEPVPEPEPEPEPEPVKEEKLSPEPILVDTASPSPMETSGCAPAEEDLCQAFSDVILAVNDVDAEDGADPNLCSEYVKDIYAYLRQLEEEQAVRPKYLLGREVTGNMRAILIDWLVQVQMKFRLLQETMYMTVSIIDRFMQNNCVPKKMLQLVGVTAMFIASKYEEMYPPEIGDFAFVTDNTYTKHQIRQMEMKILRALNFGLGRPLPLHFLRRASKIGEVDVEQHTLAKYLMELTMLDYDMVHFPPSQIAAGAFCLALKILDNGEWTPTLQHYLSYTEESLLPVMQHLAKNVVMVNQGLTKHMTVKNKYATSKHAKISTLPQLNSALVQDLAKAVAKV
Method: as §3, §2
In a final reaction volume of 10 μl, CDK1/CyclinB (h) (0.2 μg/ml) is incubated with 50 mM Hepes pH 7.5, 10 mM MgCl2, 1 mM EGTA, 0.01% Brij-35, 2 μM Z'lyte Ser/Thr peptide 12 and 10 μM ATP (Invitrogen's FRET assay). After incubation of 60 minutes at room temperature, the reaction is stopped by addition of 5 μL development reagent containing protease mix. After 60 minutes room temperature the development reaction is stopped by adding 5 μl stop solution. The plate is then read in fluorescence plate reader with excitation: 390 nm and dual emission: 460 and 538 nm. Emission ratio is determined to the formula=Emission signal intensity at 460 nm/Emission signal intensity at 538 nm.

[5] = molecular target: PLK1 T210D (h) (Homo sapiens, UniProt P53350, T210D); experiment: PLK1 human kinase inhibition, SPA; type: biochemical; conditions: read-out: PLK1 pIC50 (converted)
Sequence of PLK1 T210D (h) (P53350 whole entry T210D): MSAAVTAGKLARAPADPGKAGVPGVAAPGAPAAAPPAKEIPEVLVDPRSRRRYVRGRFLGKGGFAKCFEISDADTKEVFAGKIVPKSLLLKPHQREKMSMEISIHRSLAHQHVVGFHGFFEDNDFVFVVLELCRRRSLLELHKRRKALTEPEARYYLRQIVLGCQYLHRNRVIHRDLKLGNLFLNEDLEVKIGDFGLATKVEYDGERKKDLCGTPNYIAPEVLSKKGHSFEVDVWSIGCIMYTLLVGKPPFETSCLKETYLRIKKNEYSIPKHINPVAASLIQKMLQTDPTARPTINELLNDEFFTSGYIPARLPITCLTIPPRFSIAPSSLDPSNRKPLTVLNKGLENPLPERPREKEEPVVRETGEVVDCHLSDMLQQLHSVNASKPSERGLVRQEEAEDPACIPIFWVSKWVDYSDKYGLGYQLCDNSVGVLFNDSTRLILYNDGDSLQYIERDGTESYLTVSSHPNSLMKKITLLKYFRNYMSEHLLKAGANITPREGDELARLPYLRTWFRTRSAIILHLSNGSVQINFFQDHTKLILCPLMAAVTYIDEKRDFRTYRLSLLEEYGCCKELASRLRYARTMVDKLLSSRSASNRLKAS
Method: as §3, §1, §2
In a final reaction volume of 30 μl, PLK1 T210D (h) (0.125 ng/ml) is incubated with 50 mM Hepes pH 8.0, 2 mM MnCl2, 1 mM DTT, 2 μM of peptide Biotin-Tds linker-[…], 0.1 μM ATP and 2 nM [γ-^33P-ATP] (6.0 μCi/ml). After incubation of 40 minutes at room temperature, the reaction is stopped by addition of 40 μL of stop solution containing 8.7 mM EDTA, BSA 0.17%, 0.17% Triton X-100, 25 mg/ml SPA beads (GE-healthcare). The plate is centrifuged and read for Scintillation imaging on Leadseeker.

[6] = molecular target: PLK2 (h) (Homo sapiens, UniProt Q9NYY3); experiment: PLK2 human kinase inhibition, SPA; type: biochemical; conditions: read-out: PLK2 pIC50 (converted)
Sequence of PLK2 (h) (Q9NYY3 whole entry): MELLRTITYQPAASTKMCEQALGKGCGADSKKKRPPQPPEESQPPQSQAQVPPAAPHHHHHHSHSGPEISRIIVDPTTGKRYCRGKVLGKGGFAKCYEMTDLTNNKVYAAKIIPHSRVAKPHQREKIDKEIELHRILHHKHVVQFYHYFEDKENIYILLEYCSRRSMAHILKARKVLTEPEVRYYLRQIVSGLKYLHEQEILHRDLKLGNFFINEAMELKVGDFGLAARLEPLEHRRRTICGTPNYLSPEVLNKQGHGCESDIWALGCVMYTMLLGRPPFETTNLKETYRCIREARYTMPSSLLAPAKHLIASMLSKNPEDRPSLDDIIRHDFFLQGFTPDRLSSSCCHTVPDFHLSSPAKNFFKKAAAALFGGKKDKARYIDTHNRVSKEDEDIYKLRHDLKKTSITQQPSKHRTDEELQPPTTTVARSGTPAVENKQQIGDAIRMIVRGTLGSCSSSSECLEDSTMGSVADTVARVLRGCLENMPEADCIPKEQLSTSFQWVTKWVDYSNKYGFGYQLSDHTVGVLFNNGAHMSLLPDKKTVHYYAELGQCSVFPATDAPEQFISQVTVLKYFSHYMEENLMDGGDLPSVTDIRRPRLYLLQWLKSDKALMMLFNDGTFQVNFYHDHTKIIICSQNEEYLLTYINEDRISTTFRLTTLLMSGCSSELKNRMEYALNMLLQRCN
Method: as §3, §1, §2
(§4) In a final reaction volume of 30 μl, PLK2 (h) (30 μg/ml) is incubated with 50 mM Hepes pH 8.0, 2 mM MnCl2, 1 mM DTT, 2 μM of peptide Biotin-Tds linker-[…], 0.1 μM ATP and 2 nM [γ-^33P-ATP] (6.0 μCi/ml). After incubation of 20 minutes at room temperature, the reaction is stopped by addition of 40 μL of stop solution containing 8.7 mM EDTA, BSA 0.17%, 0.17% Triton X-100, 25 mg/ml SPA beads (GE-healthcare). The plate is centrifuged and read for Scintillation imaging on Leadseeker.

[7] = molecular target: PLK3 (h) (Homo sapiens, UniProt Q9H4B4); experiment: PLK3 human kinase inhibition, SPA; type: biochemical; conditions: read-out: PLK3 pIC50 (converted)
Sequence of PLK3 (h) (Q9H4B4 whole entry): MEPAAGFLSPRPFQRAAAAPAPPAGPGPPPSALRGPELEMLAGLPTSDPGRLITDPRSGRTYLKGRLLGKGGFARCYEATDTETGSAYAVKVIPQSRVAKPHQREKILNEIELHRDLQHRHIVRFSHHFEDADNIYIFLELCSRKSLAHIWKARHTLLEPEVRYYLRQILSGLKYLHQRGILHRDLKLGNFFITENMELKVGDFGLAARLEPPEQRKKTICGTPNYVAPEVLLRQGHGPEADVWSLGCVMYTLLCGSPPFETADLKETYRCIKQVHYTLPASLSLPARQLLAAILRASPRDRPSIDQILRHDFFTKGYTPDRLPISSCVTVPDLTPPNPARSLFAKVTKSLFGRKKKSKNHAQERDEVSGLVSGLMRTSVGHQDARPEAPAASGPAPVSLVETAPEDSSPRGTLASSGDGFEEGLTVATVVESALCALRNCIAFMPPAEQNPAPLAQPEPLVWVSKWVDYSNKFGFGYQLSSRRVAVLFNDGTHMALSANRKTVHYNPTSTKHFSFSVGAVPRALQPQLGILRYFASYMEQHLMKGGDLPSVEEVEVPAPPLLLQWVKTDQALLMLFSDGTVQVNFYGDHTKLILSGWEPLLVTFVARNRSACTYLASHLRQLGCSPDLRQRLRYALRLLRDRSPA
Method: as §3, §1, §2
as §4, with “PLK3” for “PLK2”

[8] = system: HCT-116; experiment: Cellular proliferation assay (Alamar blue), HCT-116; type: cell-based; conditions: Homo sapiens, 10% FCS, 72 hours with compound, Alamar blue 4 h
Method: (§5) […] functional properties of these compounds were tested in cellular proliferation assays on a panel of different cell lines in the presence of 10% FCS serum (37° C. and 5% (v/v) CO2). In a first step these cells were seeded and incubated for 24 hours in the absence of compound. In the second step the cells were incubated for 72 hours with the compounds to be tested for 72 hours. The viable cell number was finally assessed in a standard Alamar blue cell viability assay.
(§6) The viable cell number was assessed by incubation for either 4 h (HCT-116, H1299) 6 h (U87-MG) or 24 h (A2780, MDA-MB-231) with Alamar blue (Resazurin 9 μg/ml, K-Ferrocyanide 90 μM, K-Ferricyanide 90 μM) and the converted fluorescent product was quantified on a fluorescent plate reader (544 nm/590 nm). Effect of the compounds is calculated as of on control cells.

[9] = system: H1299; experiment: Cellular proliferation assay (Alamar blue), H1299; type: cell-based; conditions: Homo sapiens, NCI-H1299; 10% FCS; 72 hours with compound; Alamar blue 4 h
Method: as §5, §6

[10] = system: U87-MG; experiment: Cellular proliferation assay (Alamar blue), U87-MG; type: cell-based; conditions: Homo sapiens, U-87 MG; 10% FCS; 72 hours with compound; Alamar blue 6 h; read-out: U87-MG (cellular proliferation assay, Table 4) (converted)
Method: as §5, §6

[11] = system: A2780; experiment: Cellular proliferation assay (Alamar blue), A2780; type: cell-based; conditions: Homo sapiens, 10% FCS, 72 hours with compound, Alamar blue 24 h, read-out: A2780 (cellular proliferation assay, Table 4) (converted)
Method: as §5, §6

[12] = system: MDA-MB-231; experiment: Cellular proliferation assay (Alamar blue), MDA-MB-231; type: cell-based; conditions: Homo sapiens, 10% FCS, 72 hours with compound, Alamar blue 24 h, read-out: MDA/MB231 (cellular proliferation assay, Table 4) (converted)
Method: as §5, §6

Sequence of PLK4 (h) (O00444 whole entry): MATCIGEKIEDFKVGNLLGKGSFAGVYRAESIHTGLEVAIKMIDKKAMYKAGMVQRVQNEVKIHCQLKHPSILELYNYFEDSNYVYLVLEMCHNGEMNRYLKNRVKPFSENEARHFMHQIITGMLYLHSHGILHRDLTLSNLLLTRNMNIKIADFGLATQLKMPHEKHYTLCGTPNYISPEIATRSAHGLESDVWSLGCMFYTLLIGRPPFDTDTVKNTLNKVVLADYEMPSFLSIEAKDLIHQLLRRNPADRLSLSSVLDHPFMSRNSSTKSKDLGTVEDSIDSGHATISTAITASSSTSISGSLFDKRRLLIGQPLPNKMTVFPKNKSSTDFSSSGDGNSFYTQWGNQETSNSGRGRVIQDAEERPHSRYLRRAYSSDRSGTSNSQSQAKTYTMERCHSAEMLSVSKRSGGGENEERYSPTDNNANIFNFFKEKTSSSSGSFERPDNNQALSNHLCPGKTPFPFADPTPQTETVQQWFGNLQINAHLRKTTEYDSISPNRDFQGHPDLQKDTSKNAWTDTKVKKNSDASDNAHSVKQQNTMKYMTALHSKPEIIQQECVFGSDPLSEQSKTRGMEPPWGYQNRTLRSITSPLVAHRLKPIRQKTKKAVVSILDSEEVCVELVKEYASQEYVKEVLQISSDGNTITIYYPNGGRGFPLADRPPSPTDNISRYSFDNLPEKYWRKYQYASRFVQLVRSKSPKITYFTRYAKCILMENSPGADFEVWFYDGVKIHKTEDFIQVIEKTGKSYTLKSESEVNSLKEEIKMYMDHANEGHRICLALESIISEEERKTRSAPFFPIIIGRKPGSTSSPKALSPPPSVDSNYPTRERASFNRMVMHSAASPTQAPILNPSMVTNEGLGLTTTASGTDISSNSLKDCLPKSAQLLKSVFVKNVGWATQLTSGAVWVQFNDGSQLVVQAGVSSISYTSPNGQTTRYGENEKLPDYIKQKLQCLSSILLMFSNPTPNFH

SMILES	IC50 [1] [µM]	IC50 [2] [µM]	IC50 [3] [µM]	IC50 [4] [µM]	IC50 [5] [µM]	IC50 [6] [µM]	IC50 [7] [µM]	IC50 [8] [µM]	IC50 [9] [µM]	IC50 [10] [µM]	IC50 [11] [µM]	IC50 [12] [µM]
CN1CCNC(=O)[C@H](CO)NCc2cc(cc(N3CCOCC3)c2)Nc2nccc(n2)-c2ccc(cc2)C1 [Compound 108]	0.603	6.03	6.61	> 10	> 10	> 3.02	> 10	8.32	> 10	8.91	> 10	> 10
CN1CCCNC(=O)[C@H](CO)NCc2cc(Br)cc(c2)Nc2nccc(n2)-c2ccc(cc2)C1 [Compound 110]	0.759	2.57	6.46	> 10	> 10	> 10	> 10	> 10		8.51	5.5	
CN1CCNC(=O)[C@H](CO)NCc2cc(Br)cc(c2)Nc2nccc(n2)-c2ccc(cc2)C1 [Compound 121]								1.91	6.03	7.24	10	7.76
COc1ccc2cc1CN1CCN(CC1)CC(=O)N(C)CCCN(C)c1ccc(cn1)-c1ccnc(n1)N2 [Compound 148]								0.316	> 10	4.68	> 10	> 10
O=C1NCCNCc2ccc(cc2)-c2ccnc(n2)Nc2ccc(N3CCOCC3)c(c2)CN2C[C@H](O)C[C@@H]12 [Compound 166]	3.55				> 10			> 10		> 3.02	> 10	> 10
O=C1NCCCNCc2ccc(cc2)-c2ccnc(n2)Nc2ccc(N3CCOCC3)c(c2)CN2CCC[C@@H]12 [Compound 172]	5.37				> 10			> 10		4.79	> 10	> 10
COc1ccc2cc1CNCCCNC(=O)[C@@H]1C[C@@H](O)CN1Cc1cc(ccc1N1CCOCC1)Nc1nccc-2n1 [Compound 176]	> 10				> 10			> 10	> 10	> 10	> 10	> 10
